“And” between values parts separate entries of the source, which are not always exact repeats. Equal values may be shown once.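 Briefly, cells in 96-well plates were exposed to five compound concentrations for 48 h, and endpoints were estimated by linear interpolation. Abbreviation: GI50, concentration required for 50% inhibition of growth. At the TGI there is no net growth.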
Legend:
Experiment in all cases: inhibition of tumour cell growth, NCI panel, 48 h
SK-MEL-28 melanoma = system: SK-MEL-28 melanoma
SF-539 CNS = system: SF-539 CNS
CAKI-1 renal = system: CAKI-1 renal
MALME-3M melanoma = system: MALME-3M melanoma
NCI-H23 lung = system: NCI-H23 lung
OVCAR-3 ovarian = system: OVCAR-3 ovarian
NCI-H522 lung = system: NCI-H522 lung
LOX IMVI melanoma = system: LOX IMVI melanoma
SF-268 CNS = system: SF-268 CNS

Row | Compound | TGI (SK-MEL-28 melanoma) [µM] | TGI (SF-539 CNS) [µM] | TGI (CAKI-1 renal) [µM] | TGI (MALME-3M melanoma) [µM] | TGI (NCI-H23 lung) [µM] | TGI (OVCAR-3 ovarian) [µM] | TGI (NCI-H522 lung) | TGI (LOX IMVI melanoma) [µM] | TGI (SF-268 CNS) [µM] | GI50 (SK-MEL-28 melanoma) [µM] | GI50 (SF-539 CNS) [µM] | GI50 (NCI-H522 lung) | GI50 (CAKI-1 renal) [µM] | GI50 (LOX IMVI melanoma) [µM] | GI50 (SF-268 CNS) | GI50 (MALME-3M melanoma) [µM] | GI50 (NCI-H23 lung) [µM] | GI50 (OVCAR-3 ovarian) [µM]
1 | CC1=NN(c2ccccc2)C(=O)C1N=Nc1ccc(Br)c(C)c1 (configuration not stated) | > 100 | > 100 | > 100 | > 100 | > 100 | > 100 |  |  |  |  |  |  |  |  |  |  |  | 
2 | Cc1cc(C)c2[s+]snc2c1 | > 100 | > 100 | > 100 | > 100 | > 100 | > 100 | 77.6 µM | > 100 | > 100 |  |  |  |  |  |  |  |  | 
3 | N#CC12Cc3ccc4c(c3-c3cccc(c31)CCN2C(=O)c1ccccc1)OCO4 (configuration not stated) | > 100 | > 100 |  | > 100 | > 100 | > 100 |  | > 100 | > 100 |  |  |  |  |  |  |  |  | 
4 | CC[O-].CC[O-].O=C([CH-]C(=O)c1ccccc1)c1ccccc1.O=C([CH-]C(=O)c1ccccc1)c1ccccc1.[Ti+4] | > 100 | > 100 | > 100 | > 100 | > 100 | > 100 | > 100 µM | > 100 | > 100 | > 100 | 19.8 | > 100 µM | > 100 | > 100 | > 100 µM | > 100 | > 100 | > 100
5 | Cc1cc2c(cc1C)[n+]([O-])c(-c1c(Cl)cccc1Cl)c(N)[n+]2[O-] | 89.6 | > 100 | 95.1 | 92.3 | 75.8 | 99.5 | 28 µM | > 100 | > 100 |  |  |  |  |  |  |  |  | 
6 | O=C1c2ccccc2C(=O)c2sc(Nc3ccc(Cl)c(Cl)c3)nc21 | 20.7 | 8.18 | 8.83 | 9.47 | 10.5 | 6.3 | 4.66 µM | 4.73 | 12.8 |  |  |  |  |  |  |  |  | 
7 | CC12OC3CC(O1)C1(C=O)C4CCC5(C)C(c6ccc(=O)oc6)CCC5(O)C4CCC1(C3)O2 (configuration not stated) | 1.49 | 0.228 | 0.729 | 0.51 |  | 0.384 | 0.317 µM | 0.524 | 0.229 |  |  |  |  |  |  |  |  | 
8 | COC(=O)C(=O)C1CCCCC(C2=NC3NN=C(N)N3C2=O)C1=O (configuration not stated) | > 100 | > 100 | > 100 | > 100 | > 100 | > 100 | > 100 µM | > 100 | > 100 |  |  |  |  |  |  |  |  | 
9 | NNC(=S)N/N=C/C(Cl)=C(\Cl)C(=O)O | > 100 | > 100 | > 100 | > 100 | > 100 | > 100 | > 100 µM | > 100 | > 100 |  |  |  |  |  |  |  |  | 
10 | CC(C)[O-].CC(C)[O-].[O-]c1cccc2cccnc12.[O-]c1cccc2cccnc12.[Ti+4] | > 100 | > 100 | > 100 | > 100 | > 100 | > 100 | 2.84 µM and 5.68 µM | > 100 | > 100 | 56.5 | 97 | 1.41 µM and 1.93 µM |  | 74 | 6.4 µM and 51.1 µM | 25.7 | > 100 | 15.4
11 | C[N+]1=c2c3cccc4cccc(c(=O)n2CCC1)c43 | 39.6 | > 100 | 84 | 32.9 | 39.1 | 55.1 | 30.2 µM | 29.4 | 60.2 |  |  |  |  |  |  |  |  | 
12 | CCOc1ccc(NC(=O)CCC(=O)NN)cc1 | > 100 |  | > 100 | > 100 | > 100 | > 100 | > 100 µM | > 100 | > 100 |  |  |  |  |  |  |  |  | 
13 | Oc1[nH]c2ccc(Cl)cc2c1/C=c1/ccc2c(c1)N=C(c1cc(F)cc(F)c1)N=2 | > 100 | > 100 | > 100 | > 100 | > 100 | 5.73 | 5.74 µM | > 100 | > 100 | 5.06 | 8.7 | 2.14 µM | 5.1 | 3.52 | 3.7 µM | 57.5 | 5.01 | 2.26
14 | CCNCCNc1cc(-c2cccc(C(F)(F)F)c2)c(C#N)c2nc3ccccc3n12 | 3.63 | 3.23 | 3 | 3.29 | 3.53 | 2.62 | 3.46 µM | 1.07 | 3.12 | 1.86 | 1.7 | 1.86 µM | 1.54 | 0.299 | 1.57 µM | 1.64 | 1.75 | 1.26
15 | CCc1oc2ccc(OC)c3c2c1C=CC=C3 | > 100 | > 100 |  | > 100 | > 100 | > 100 | > 100 µM | > 100 | > 100 |  |  |  |  |  |  |  |  | 
